# Tests used:
# [1] = test system: blackgrass; experiment: Test Example 4: herbicidal effect by soil treatment (Table 19, symbol J); assay type: in vivo, blackgrass (Alopecurus myosuroides); conditions: amount of applied herbicide 320 g/ha
# In short: (§1)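 Soil-surface application: an emulsion agent diluted with water to the predetermined dose is sprayed uniformly over seeds lying under roughly 1.5 cm of sterilized diluvial soil. Boxes stay in a greenhouse at 25° C. to 30° C. Three weeks later, each species is graded on previously defined criteria.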
# [2] = test system: chickweed; experiment: Test Example 5: herbicidal effect by foliage application, plastic box (Table 20, symbol P); assay type: in vivo, common chickweed (Stellaria media); conditions: foliage application, 320 g/ha, evaluated three weeks after application
# In short: (§2)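 Sow seeds spot-wise in sterilized diluvial soil; cover with ~1.5 cm soil. Grow 14 days in greenhouse, 25° C. to 30° C. Spray foliage with emulsion diluted to predetermined amount. Rate effect after 3 weeks.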
# [3] = test system: barnyard grass; experiment: Test Example 5: herbicidal effect by foliage application, plastic box (Table 20, symbol H); assay type: in vivo, barnyard grass (Echinochloa crus-galli); conditions: 320 g/ha, evaluated three weeks after application
# In short: as §2
# [4] = test system: velvetleaf; experiment: Test Example 4: herbicidal effect by soil treatment (Table 19, symbol M); assay type: in vivo, velvetleaf (Abutilon theophrasti); conditions: amount of applied herbicide 320 g/ha
# In short: as §1
# [5] = test system: rice flat sedge; experiment: Test Example 3: herbicidal effect by foliage application, Wagner pot (Table 18, symbol E); assay type: in vivo, rice flat sedge (Cyperus iria)
# In short: (§3)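 Plants were sown in alluvial soil held under 0.1–0.5 cm standing water and grown 14 days in a greenhouse at 25–30 °C. An emulsifiable formulation, water-diluted to the set dose, was then sprayed onto the foliage, and effects were scored three weeks later using previously defined criteria.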
# [6] = test system: southern crabgrass; experiment: Test Example 4: herbicidal effect by soil treatment (Table 19, symbol F); assay type: in vivo, southern crabgrass (Digitaria ciliaris); conditions: amount of applied herbicide 320 g/ha
# In short: as §1
# [7] = test system: Italian ryegrass; experiment: Test Example 5: herbicidal effect by foliage application, plastic box (Table 20, symbol K); assay type: in vivo, Italian ryegrass (Lolium multiflorum); conditions: 320 g/ha, evaluated three weeks after application
# In short: as §2
# [8] = test system: green foxtail; experiment: Test Example 5: herbicidal effect by foliage application, plastic box (Table 20, symbol G); assay type: in vivo, green foxtail (Setaria viridis); conditions: 320 g/ha, evaluated three weeks after application
# In short: as §2
# [9] = test system: redroot pigweed; experiment: Test Example 5: herbicidal effect by foliage application, plastic box (Table 20, symbol N); assay type: in vivo, redroot pigweed (Amaranthus retroflexus); conditions: 320 g/ha, evaluated three weeks after application
# In short: as §2
# [10] = test system: persian speedwell; experiment: Test Example 5: herbicidal effect by foliage application, plastic box (Table 20, symbol R); assay type: in vivo, Persian speedwell (Veronica persica); conditions: 320 g/ha, evaluated three weeks after application
# In short: as §2
# [11] = test system: velvetleaf; experiment: Test Example 5: herbicidal effect by foliage application, plastic box (Table 20, symbol M); assay type: in vivo, velvetleaf (Abutilon theophrasti); conditions: 320 g/ha, evaluated three weeks after application
# In short: as §2
# [12] = test system: barnyard grass; experiment: Test Example 4: herbicidal effect by soil treatment (Table 19, symbol H); assay type: in vivo, barnyard grass (Echinochloa crus-galli); conditions: amount of applied herbicide 320 g/ha
# In short: as §1
# [13] = test system: chickweed; experiment: Test Example 4: herbicidal effect by soil treatment (Table 19, symbol P); assay type: in vivo, common chickweed (Stellaria media); conditions: amount of applied herbicide 320 g/ha
# In short: as §1
# [14] = test system: barnyard grass; experiment: Test Example 3: herbicidal effect by foliage application, Wagner pot (Table 18, symbol H); assay type: in vivo, barnyard grass (Echinochloa crus-galli); conditions: amount of applied herbicide 320 g/ha
# In short: as §3
# [15] = test system: southern crabgrass; experiment: Test Example 5: herbicidal effect by foliage application, plastic box (Table 20, symbol F); assay type: in vivo, southern crabgrass (Digitaria ciliaris); conditions: 320 g/ha, evaluated three weeks after application
# In short: as §2
# [16] = test system: wild oat; experiment: Test Example 4: herbicidal effect by soil treatment (Table 19, symbol I); assay type: in vivo, wild oat (Avena fatua); conditions: amount of applied herbicide 320 g/ha
# In short: as §1
# [17] = test system: windgrass; experiment: Test Example 5: herbicidal effect by foliage application, plastic box (Table 20, symbol L); assay type: in vivo, windgrass (Apera spica-venti); conditions: 320 g/ha, evaluated three weeks after application
# In short: as §2
# [18] = test system: green foxtail; experiment: Test Example 4: herbicidal effect by soil treatment (Table 19, symbol G); assay type: in vivo, green foxtail (Setaria viridis); conditions: amount of applied herbicide 320 g/ha
# In short: as §1
# [19] = test system: lambsquarters; experiment: Test Example 4: herbicidal effect by soil treatment (Table 19, symbol O); assay type: in vivo, lambsquarters (Chenopodium album); conditions: amount of applied herbicide 320 g/ha
# In short: as §1
# [20] = test system: blackgrass; experiment: Test Example 5: herbicidal effect by foliage application, plastic box (Table 20, symbol J); assay type: in vivo, blackgrass (Alopecurus myosuroides); conditions: 320 g/ha, evaluated three weeks after application
# In short: as §2
# [21] = test system: Italian ryegrass; experiment: Test Example 4: herbicidal effect by soil treatment (Table 19, symbol K); assay type: in vivo, Italian ryegrass (Lolium multiflorum); conditions: amount of applied herbicide 320 g/ha
# In short: as §1
# [22] = test system: persian speedwell; experiment: Test Example 4: herbicidal effect by soil treatment (Table 19, symbol R); assay type: in vivo, Persian speedwell (Veronica persica); conditions: amount of applied herbicide 320 g/ha
# In short: as §1
# [23] = test system: lambsquarters; experiment: Test Example 5: herbicidal effect by foliage application, plastic box (Table 20, symbol O); assay type: in vivo, lambsquarters (Chenopodium album); conditions: 320 g/ha, evaluated three weeks after application
# In short: as §2
# [24] = test system: windgrass; experiment: Test Example 4: herbicidal effect by soil treatment (Table 19, symbol L); assay type: in vivo, windgrass (Apera spica-venti); conditions: amount of applied herbicide 320 g/ha
# In short: as §1
# [25] = test system: Chinese sprangletop; experiment: Test Example 3: herbicidal effect by foliage application, Wagner pot (Table 18, symbol D); assay type: in vivo, chinese sprangletop (Leptochloa chinensis)
# In short: as §3
# [26] = test system: wild oat; experiment: Test Example 5: herbicidal effect by foliage application, plastic box (Table 20, symbol I); assay type: in vivo, wild oat (Avena fatua); conditions: 320 g/ha, evaluated three weeks after application
# In short: as §2
# [27] = test system: redroot pigweed; experiment: Test Example 4: herbicidal effect by soil treatment (Table 19, symbol N); assay type: in vivo, redroot pigweed (Amaranthus retroflexus); conditions: amount of applied herbicide 320 g/ha
# In short: as §1
# [28] = amount of applied herbicide 320 g/ha
# [29] = foliage application after 14-day growth
compound,measurement,setting,value
CCCC(=O)Oc1c(C)nn(C)c(=O)c1-c1c(-c2ccc(C#N)cc2)sc2ccc(C)cc12 [2-147],"J: blackgrass, herbicidal effect rating",[1],0 (Herbicidal rate of 5% or less (almost no effect))
same,herbicidal effect on P: chickweed (criteria 0-5),[2],5 (Herbicidal rate of 90% or more (almost completely withered))
same,herbicidal effect on H: barnyard grass (criteria 0-5),[3]; foliage application,0 (Herbicidal rate of 5% or less (almost no effect))
same,"M: velvetleaf, herbicidal effect rating",[4],0 (Herbicidal rate of 5% or less (almost no effect))
same,herbicidal effect on E: rice flat sedge,[5]; [28],5 (Herbicidal rate of 90% or more (almost completely withered))
same,"F: southern crabgrass, herbicidal effect rating",[6],0 (Herbicidal rate of 5% or less (almost no effect))
same,herbicidal effect on K: Italian ryegrass (criteria 0-5),[7]; foliage application,0 (Herbicidal rate of 5% or less (almost no effect))
same,herbicidal effect on G: green foxtail (criteria 0-5),[8]; foliage application,0 (Herbicidal rate of 5% or less (almost no effect))
same,herbicidal effect on N: redroot pigweed (criteria 0-5),[9]; foliage application,5 (Herbicidal rate of 90% or more (almost completely withered))
same,herbicidal effect on R: persian speedwell (criteria 0-5),[10]; foliage application,5 (Herbicidal rate of 90% or more (almost completely withered))
same,herbicidal effect on M: velvetleaf (criteria 0-5),[11]; foliage application,4 (Herbicidal rate of 70% or more and less than 90%)
same,"H: barnyard grass, herbicidal effect rating",[12],0 (Herbicidal rate of 5% or less (almost no effect))
same,"P: chickweed, herbicidal effect rating",[13],4 (Herbicidal rate of 70% or more and less than 90%)
same,herbicidal effect on H: barnyard grass,[14],1 (Herbicidal rate of 5% or more and less than 20%)
same,herbicidal effect on F: southern crabgrass (criteria 0-5),[15]; foliage application,0 (Herbicidal rate of 5% or less (almost no effect))
same,"I: wild oat, herbicidal effect rating",[16],0 (Herbicidal rate of 5% or less (almost no effect))
same,herbicidal effect on L: windgrass (criteria 0-5),[17]; foliage application,0 (Herbicidal rate of 5% or less (almost no effect))
same,"G: green foxtail, herbicidal effect rating",[18],0 (Herbicidal rate of 5% or less (almost no effect))
same,"O: lambsquarters, herbicidal effect rating",[19],0 (Herbicidal rate of 5% or less (almost no effect))
same,herbicidal effect on J: blackgrass (criteria 0-5),[20]; foliage application,0 (Herbicidal rate of 5% or less (almost no effect))
same,"K: Italian ryegrass, herbicidal effect rating",[21],0 (Herbicidal rate of 5% or less (almost no effect))
same,"R: persian speedwell, herbicidal effect rating",[22],5 (Herbicidal rate of 90% or more (almost completely withered))
same,herbicidal effect on O: lambsquarters (criteria 0-5),[23]; foliage application,3 (Herbicidal rate of 40% or more and less than 70%)
same,"L: windgrass, herbicidal effect rating",[24],0 (Herbicidal rate of 5% or less (almost no effect))
same,herbicidal effect on D: Chinese sprangletop,[25]; [28],0 (Herbicidal rate of 5% or less (almost no effect))
same,herbicidal effect on I: wild oat (criteria 0-5),[26]; foliage application,0 (Herbicidal rate of 5% or less (almost no effect))
CCOc1cccc(-c2sc3c(Cl)cccc3c2-c2c(O)c(C)nn(C)c2=O)c1 [4-066],"Herbicidal effect by soil treatment, J: blackgrass",[1],0 (Herbicidal rate of 5% or less (almost no effect))
same,herbicidal effect on H: barnyard grass (evaluation grade 0-5),[3]; [29],3 (Herbicidal rate of 40% or more and less than 70%)
same,"Herbicidal effect by soil treatment, M: velvetleaf",[4],0 (Herbicidal rate of 5% or less (almost no effect))
same,herbicidal effect on rice flat sedge (E),[5]; 320 g/ha,3 (Herbicidal rate of 40% or more and less than 70%)
same,"Herbicidal effect by soil treatment, F: southern crabgrass",[6],0 (Herbicidal rate of 5% or less (almost no effect))
same,herbicidal effect on K: Italian ryegrass (evaluation grade 0-5),[7]; [29],3 (Herbicidal rate of 40% or more and less than 70%)
same,herbicidal effect on G: green foxtail (evaluation grade 0-5),[8]; [29],1 (Herbicidal rate of 5% or more and less than 20%)
same,herbicidal effect on N: redroot pigweed (evaluation grade 0-5),[9]; [29],4 (Herbicidal rate of 70% or more and less than 90%)
same,herbicidal effect on R: persian speedwell (evaluation grade 0-5),[10]; [29],3 (Herbicidal rate of 40% or more and less than 70%)
same,herbicidal effect on M: velvetleaf (evaluation grade 0-5),[11]; [29],4 (Herbicidal rate of 70% or more and less than 90%)
same,"Herbicidal effect by soil treatment, H: barnyard grass",[12],0 (Herbicidal rate of 5% or less (almost no effect))
same,"Herbicidal effect by soil treatment, P: chickweed",[13],0 (Herbicidal rate of 5% or less (almost no effect))
same,herbicidal effect on F: southern crabgrass (evaluation grade 0-5),[15]; [29],0 (Herbicidal rate of 5% or less (almost no effect))
same,"Herbicidal effect by soil treatment, I: wild oat",[16],0 (Herbicidal rate of 5% or less (almost no effect))
same,herbicidal effect on L: windgrass (evaluation grade 0-5),[17]; [29],0 (Herbicidal rate of 5% or less (almost no effect))
same,"Herbicidal effect by soil treatment, G: green foxtail",[18],0 (Herbicidal rate of 5% or less (almost no effect))
same,"Herbicidal effect by soil treatment, O: lambsquarters",[19],0 (Herbicidal rate of 5% or less (almost no effect))
same,herbicidal effect on J: blackgrass (evaluation grade 0-5),[20]; [29],0 (Herbicidal rate of 5% or less (almost no effect))
same,"Herbicidal effect by soil treatment, N: redroot pigweed",[27],0 (Herbicidal rate of 5% or less (almost no effect))
same,"Herbicidal effect by soil treatment, K: Italian ryegrass",[21],0 (Herbicidal rate of 5% or less (almost no effect))
same,"Herbicidal effect by soil treatment, R: persian speedwell",[22],4 (Herbicidal rate of 70% or more and less than 90%)
same,herbicidal effect on O: lambsquarters (evaluation grade 0-5),[23]; [29],3 (Herbicidal rate of 40% or more and less than 70%)
same,"Herbicidal effect by soil treatment, L: windgrass",[24],0 (Herbicidal rate of 5% or less (almost no effect))
same,herbicidal effect on Chinese sprangletop (D),[25]; 320 g/ha,0 (Herbicidal rate of 5% or less (almost no effect))
same,herbicidal effect on I: wild oat (evaluation grade 0-5),[26]; [29],0 (Herbicidal rate of 5% or less (almost no effect))

# Source: patent publication US20230085307A1, “PYRIDAZINONE COMPOUND AND HERBICIDE” (NISSAN CHEMICAL CORPORATION, priority 2019, published 2023)
